Activity calls are given as the source filed them.

For experiment [1], the target named is X-box-binding protein 1 (Homo sapiens, UniProt P17861). The experiment is classed as functional, Cricetulus griseus.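 Note: confirmatory dose-response counter-screen serving a CHOP assay.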
Experiment [2] is described as follows: Luminescence Cell-Based Dose Confirmation HTS to Identify Activators of 5'UTR Stem-Loop Driven Alpha-Synuclein mRNA Translation in H4 Neuroglioblastoma Cells. [Related pubchem assays: 1829 (Project Summary), 1814 (Primary HTS)]. Type of experiment: functional.
The nature of experiment [3]: Luminescence Cell-Based Dose Response HTS to Identify Activators of Luciferase Translation or Activity in H4-C Neuroglioblastoma Cells. [Related pubchem assays: 1829 (Project Summary), 1814 (Primary HTS)]. The experiment is classed as functional.
Experiment [4] concerns H4. Put plainly: Luminescence Cell-Based Dose Response HTS to Identify Activators of 5'UTR Stem-Loop Driven Prion Protein mRNA Translation in H4 Neuroglioblastoma Cells. [Related pubchem assays: 1829 (Project Summary), 1814 (Primary HTS)]. The experiment is classed as functional. The settings on record: Homo sapiens.
Experiment [5] is described as follows: Luminescence Cell-Based Dose Response HTS to Identify Activators of Luciferase Translation or Activity in H4 […] Cells. [Related pubchem assays: 1829 (Project Summary), 1814 (Primary HTS)]. Type of experiment: functional.
Experiment [6] in a line: Luminescence Cell-Based Dose Retest to Confirm Activators of 5'UTR Stem-Loop Driven Alpha-Synuclein mRNA Translation in H4 Neuroglioblastoma Cells. [Related pubchem assays (depositor defined):AID1813, AID1829]. Type of experiment: functional.
Experiment [7] can be described thus: Luminescence Cell-Based Dose Response HTS to Identify Activators of 5'UTR Stem-Loop Driven Prion Protein mRNA Translation in H4-C Neuroglioblastoma Cells. [Related pubchem assays: 1829 (Project Summary), 1814 (Primary HTS)]. The experiment is classed as functional.
The target of experiment [8] is T1, Voltage-dependent T-type calcium channel subunit alpha-1H (Homo sapiens, UniProt O95180). Put plainly: Inhibitors of T-Type Calcium Channels. [Related pubchem assays (depositor defined):AID449739, AID463087, AID489005, AID493041, AID504579, AID504584, AID504619, AID504628]. The experiment is classed as functional.
For experiment [9], the target named is T1, Voltage-dependent T-type calcium channel subunit alpha-1H. Type of experiment: functional.
For experiment [10], the target named is NACHT, LRR and PYD domains-containing protein 3 (Homo sapiens, UniProt Q96P20). Put plainly: NALP3 inhibitors in yeast, dose response, luminescent (AID 488799). The experiment is classed as functional.
The target of experiment [11] is T2, Cytochrome P450 1A2 (Homo sapiens, UniProt P05177).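 Note: PubChem cytochrome P450 panel assay, CYP1A2 panel member.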
T2 sequence (P05177 whole entry): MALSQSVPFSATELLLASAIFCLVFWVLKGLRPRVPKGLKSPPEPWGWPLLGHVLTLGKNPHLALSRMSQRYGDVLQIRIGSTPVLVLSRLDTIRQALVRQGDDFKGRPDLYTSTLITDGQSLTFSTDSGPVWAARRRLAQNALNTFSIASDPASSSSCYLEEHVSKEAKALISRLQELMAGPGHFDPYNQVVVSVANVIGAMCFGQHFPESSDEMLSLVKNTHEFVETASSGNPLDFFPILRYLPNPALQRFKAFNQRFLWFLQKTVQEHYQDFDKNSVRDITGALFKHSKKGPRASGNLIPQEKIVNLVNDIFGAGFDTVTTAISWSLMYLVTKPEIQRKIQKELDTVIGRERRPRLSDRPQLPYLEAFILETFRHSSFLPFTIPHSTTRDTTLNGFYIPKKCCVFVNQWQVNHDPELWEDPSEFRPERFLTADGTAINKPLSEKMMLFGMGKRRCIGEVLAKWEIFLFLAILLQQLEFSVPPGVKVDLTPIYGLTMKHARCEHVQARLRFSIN

Experiment [12] deals with T3, Orexin/Hypocretin receptor type 1 (Homo sapiens, UniProt O43613).
T3 sequence (O43613 whole entry): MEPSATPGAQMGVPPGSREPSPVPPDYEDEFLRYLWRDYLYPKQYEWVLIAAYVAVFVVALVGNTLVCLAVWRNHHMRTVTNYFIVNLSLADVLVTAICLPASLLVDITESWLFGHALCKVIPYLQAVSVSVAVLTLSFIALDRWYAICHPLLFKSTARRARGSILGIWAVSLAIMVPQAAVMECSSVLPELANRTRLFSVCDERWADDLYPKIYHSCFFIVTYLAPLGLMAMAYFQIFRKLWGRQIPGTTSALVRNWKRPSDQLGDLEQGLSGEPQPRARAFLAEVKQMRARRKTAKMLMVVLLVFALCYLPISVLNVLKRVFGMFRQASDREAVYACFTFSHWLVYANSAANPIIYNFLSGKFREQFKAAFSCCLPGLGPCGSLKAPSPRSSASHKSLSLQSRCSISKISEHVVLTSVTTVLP
In words: Homogeneous Time Resolved Fluorescence (HTRF)-based cell-based high throughput dose response assay for antagonists of the orexin 1 receptor (OX1R; HCRTR1). [Related pubchem assays (depositor defined):AID434989, AID435008, AID463079, AID485270, AID492963, AID492964, AID492965, AID493232, AID504717, AID504718]. The experiment is classed as functional.

A short description of experiment [13]: Counterscreen for antagonists of the orexin 1 receptor (OX1R; HCRTR1): Fluorescence-based cell-based high throughput dose response assay to identify antagonists of the parental CHO cell line. [Related pubchem assays (depositor defined):AID434989, AID435008, AID463079, AID485270, AID492963, AID492964, AID492965, AID493232, AID504699, AID504701]. The experiment is classed as functional. In general terms: A counterscreen serves to expose hits that act by an unwanted route or on another target.

For experiment [14], the target named is T3, Orexin/Hypocretin receptor type 1. Put plainly: Fluorescence-based cell-based high throughput dose response assay for antagonists of the orexin 1 receptor (OX1R; HCRTR1). [Related pubchem assays (depositor defined):AID434989, AID435008, AID463079, AID485270, AID492963, AID492964, AID492965, AID493232, AID504717, AID504718]. The experiment is classed as functional.

Experiment [15] addresses T4, Scavenger receptor class B member 1 (Mus musculus, UniProt Q61009).
T4 sequence (Q61009 whole entry): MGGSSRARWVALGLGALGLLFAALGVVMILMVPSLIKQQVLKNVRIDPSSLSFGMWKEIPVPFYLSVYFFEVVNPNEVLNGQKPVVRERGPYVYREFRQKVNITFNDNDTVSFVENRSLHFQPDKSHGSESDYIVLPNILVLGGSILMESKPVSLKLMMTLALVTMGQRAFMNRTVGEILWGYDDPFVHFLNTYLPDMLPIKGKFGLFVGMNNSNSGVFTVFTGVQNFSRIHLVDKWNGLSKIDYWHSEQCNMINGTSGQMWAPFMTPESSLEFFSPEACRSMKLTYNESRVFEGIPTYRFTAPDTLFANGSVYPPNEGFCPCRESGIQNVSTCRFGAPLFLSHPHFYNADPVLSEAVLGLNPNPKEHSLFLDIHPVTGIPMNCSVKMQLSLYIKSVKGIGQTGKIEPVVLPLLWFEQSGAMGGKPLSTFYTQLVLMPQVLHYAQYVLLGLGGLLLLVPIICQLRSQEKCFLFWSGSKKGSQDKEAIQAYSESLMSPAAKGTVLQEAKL
Put plainly: mouse SR-BI DiI-HDL uptake blockers – ldlA[mSR-BI] cells, fluorescence, cherry pick, dose response (AID 493194).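 Note: cellular uptake of fluorescent DiI-labeled HDL measured as cell fluorescence.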 Type of experiment: functional, cell-based.

The test system of experiment [16] is CHO-K1. Put plainly: Counterscreen for antagonists of the orexin 1 receptor (OX1R; HCRTR1): Homogeneous time resolved fluorescence (HTRF)-based cell-based dose response assay to identify antagonists of the parental CHO-K1 cell line. [Related pubchem assays (depositor defined):AID434989, AID435008, AID463079, AID485270, AID492963, AID492964, AID492965, AID493232, AID504699, AID504701]. The experiment is classed as functional. The settings on record: Cricetulus griseus.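 Note: potency for inhibition of ATP-stimulated IP1 production as antagonists.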

Experiment [17] addresses Melanin-concentrating hormone receptor 1 (Homo sapiens, UniProt Q99705). In words: Late-stage fluorescence-based counterscreen for antagonists of the G-protein coupled receptor 7 (GPR7): cell-based dose response assay to identify antagonists of the melanin-concentrating hormone receptor 1 (MCHR1). [Related pubchem assays (depositor defined):AID1861, AID1880, AID1952, AID2148, AID2251, AID2257, AID485339]. The experiment is classed as functional.

The target of experiment [18] is T5, Neuropeptides B/W receptor type 1 (Homo sapiens, UniProt P48145).
T5 sequence (P48145 whole entry): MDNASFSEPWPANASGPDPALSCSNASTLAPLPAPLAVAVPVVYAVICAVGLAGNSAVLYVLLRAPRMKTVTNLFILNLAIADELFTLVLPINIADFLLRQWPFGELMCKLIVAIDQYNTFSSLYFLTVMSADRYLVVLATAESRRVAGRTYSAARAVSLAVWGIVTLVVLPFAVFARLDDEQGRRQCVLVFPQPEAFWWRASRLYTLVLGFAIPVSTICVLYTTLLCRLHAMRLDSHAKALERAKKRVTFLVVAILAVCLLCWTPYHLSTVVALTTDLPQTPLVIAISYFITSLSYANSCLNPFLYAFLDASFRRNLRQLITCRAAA
Put plainly: human NPBW1 receptor blockade, IC50 – cell-based, fluorescence, dose response, late-stage follow-up (AID 463251). Type of experiment: functional.

T1 sequence (O95180 whole entry): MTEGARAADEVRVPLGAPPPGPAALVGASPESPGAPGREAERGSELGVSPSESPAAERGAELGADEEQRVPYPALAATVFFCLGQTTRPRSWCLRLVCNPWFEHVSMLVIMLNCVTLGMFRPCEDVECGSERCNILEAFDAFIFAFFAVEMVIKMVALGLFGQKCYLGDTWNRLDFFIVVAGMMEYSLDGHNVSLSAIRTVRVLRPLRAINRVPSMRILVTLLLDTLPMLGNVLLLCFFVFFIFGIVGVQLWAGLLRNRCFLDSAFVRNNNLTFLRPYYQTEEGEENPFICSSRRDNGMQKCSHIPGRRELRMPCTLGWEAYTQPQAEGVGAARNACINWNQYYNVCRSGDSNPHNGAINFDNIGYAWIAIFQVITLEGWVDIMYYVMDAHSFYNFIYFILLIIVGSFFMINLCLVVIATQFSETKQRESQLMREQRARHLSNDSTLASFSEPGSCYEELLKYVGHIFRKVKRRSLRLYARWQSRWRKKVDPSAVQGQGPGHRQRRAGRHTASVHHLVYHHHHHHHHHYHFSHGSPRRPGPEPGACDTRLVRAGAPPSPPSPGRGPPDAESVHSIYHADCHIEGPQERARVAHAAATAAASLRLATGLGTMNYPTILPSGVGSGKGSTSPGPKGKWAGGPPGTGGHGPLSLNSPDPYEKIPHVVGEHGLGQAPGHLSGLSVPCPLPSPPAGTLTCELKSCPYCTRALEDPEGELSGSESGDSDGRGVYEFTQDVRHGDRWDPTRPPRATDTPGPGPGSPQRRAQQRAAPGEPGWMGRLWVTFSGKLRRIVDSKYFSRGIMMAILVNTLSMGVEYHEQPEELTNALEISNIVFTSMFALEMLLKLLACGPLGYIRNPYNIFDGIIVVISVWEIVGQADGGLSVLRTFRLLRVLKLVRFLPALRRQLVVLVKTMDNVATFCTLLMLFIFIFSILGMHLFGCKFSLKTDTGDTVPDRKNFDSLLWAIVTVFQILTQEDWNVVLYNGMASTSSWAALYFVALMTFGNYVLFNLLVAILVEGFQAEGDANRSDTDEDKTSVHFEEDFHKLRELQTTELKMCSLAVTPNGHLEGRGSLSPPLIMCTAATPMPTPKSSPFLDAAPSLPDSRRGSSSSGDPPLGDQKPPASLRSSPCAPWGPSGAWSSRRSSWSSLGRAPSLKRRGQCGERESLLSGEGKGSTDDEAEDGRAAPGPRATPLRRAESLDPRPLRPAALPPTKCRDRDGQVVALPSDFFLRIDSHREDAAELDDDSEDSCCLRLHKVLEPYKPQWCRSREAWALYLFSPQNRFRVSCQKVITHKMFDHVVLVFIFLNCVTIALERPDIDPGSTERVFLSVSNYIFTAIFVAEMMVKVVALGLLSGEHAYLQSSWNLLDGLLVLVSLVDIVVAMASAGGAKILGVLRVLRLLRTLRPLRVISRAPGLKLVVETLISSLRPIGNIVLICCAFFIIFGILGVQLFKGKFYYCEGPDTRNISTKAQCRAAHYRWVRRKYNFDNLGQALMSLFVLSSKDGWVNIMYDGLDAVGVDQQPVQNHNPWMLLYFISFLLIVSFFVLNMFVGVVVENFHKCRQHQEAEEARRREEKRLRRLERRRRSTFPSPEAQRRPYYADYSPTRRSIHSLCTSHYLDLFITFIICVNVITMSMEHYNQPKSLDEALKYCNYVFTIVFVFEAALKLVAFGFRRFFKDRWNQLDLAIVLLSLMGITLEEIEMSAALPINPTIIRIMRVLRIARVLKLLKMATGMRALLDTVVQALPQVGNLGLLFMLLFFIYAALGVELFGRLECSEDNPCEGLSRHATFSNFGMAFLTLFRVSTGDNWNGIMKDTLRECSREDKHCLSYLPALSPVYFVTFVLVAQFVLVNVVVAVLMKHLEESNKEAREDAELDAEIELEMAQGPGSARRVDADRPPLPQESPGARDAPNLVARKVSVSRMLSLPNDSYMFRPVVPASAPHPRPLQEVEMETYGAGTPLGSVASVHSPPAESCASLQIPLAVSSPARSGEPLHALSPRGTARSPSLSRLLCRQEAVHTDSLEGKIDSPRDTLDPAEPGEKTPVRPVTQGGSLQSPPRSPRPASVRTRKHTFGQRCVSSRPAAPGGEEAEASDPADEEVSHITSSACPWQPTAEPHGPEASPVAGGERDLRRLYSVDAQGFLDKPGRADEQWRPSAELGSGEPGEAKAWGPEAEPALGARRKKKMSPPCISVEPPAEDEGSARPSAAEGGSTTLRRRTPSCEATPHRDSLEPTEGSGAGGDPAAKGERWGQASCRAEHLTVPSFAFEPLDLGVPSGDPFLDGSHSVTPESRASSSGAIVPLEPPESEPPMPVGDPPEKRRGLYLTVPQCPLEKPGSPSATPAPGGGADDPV
X-box-binding protein 1, sequence (P17861 whole entry): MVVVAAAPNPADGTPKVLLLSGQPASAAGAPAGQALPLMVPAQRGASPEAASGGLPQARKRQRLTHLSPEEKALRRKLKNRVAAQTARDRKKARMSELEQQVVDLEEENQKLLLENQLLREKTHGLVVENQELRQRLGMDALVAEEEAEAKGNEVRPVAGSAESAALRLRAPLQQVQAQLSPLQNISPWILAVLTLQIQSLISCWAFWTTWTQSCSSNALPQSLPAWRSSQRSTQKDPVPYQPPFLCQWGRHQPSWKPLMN
NACHT, LRR and PYD domains-containing protein 3, sequence (Q96P20 whole entry, the tested form may be a part): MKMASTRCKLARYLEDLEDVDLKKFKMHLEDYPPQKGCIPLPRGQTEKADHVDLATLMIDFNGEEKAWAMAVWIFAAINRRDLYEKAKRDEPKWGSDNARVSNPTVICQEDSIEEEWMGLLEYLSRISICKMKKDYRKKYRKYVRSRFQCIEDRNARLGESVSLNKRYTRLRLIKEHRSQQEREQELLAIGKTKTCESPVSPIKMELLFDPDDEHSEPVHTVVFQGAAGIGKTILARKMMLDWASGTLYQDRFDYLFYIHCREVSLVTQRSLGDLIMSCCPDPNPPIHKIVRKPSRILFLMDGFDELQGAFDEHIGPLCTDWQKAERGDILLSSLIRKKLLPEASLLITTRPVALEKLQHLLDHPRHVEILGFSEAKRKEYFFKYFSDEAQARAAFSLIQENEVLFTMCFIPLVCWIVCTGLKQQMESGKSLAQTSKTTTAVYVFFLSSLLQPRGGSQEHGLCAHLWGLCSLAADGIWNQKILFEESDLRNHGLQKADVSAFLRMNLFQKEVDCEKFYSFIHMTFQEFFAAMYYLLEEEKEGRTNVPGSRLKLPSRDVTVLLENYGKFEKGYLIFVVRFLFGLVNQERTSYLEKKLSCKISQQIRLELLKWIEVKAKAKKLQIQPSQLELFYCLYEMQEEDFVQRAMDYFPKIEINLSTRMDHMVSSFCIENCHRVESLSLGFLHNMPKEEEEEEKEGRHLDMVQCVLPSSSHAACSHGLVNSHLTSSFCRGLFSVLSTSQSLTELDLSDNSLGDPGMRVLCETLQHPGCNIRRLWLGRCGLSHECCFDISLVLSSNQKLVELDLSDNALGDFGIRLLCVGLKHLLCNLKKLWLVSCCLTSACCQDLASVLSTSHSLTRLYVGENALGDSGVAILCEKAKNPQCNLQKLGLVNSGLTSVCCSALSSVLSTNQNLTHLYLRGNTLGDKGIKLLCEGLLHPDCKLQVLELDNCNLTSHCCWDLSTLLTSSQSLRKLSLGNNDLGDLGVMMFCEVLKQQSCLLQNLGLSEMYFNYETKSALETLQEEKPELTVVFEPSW
Melanin-concentrating hormone receptor 1, sequence (Q99705 whole entry): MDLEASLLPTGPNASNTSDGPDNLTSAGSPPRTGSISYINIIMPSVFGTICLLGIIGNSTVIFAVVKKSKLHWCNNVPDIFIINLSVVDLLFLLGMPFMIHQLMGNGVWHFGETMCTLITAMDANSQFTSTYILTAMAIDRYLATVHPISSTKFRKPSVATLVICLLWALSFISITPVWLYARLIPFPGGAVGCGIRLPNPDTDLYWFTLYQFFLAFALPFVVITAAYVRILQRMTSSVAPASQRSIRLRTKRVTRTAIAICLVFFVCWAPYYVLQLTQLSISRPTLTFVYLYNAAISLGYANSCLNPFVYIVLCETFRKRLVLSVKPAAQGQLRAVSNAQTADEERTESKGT

`CC(C)c1ccc(NC(=O)CSc2[nH]c(-c3ccccc3F)nc3ncnc2-3)cc1`: the “Absolute IC50 (XBP1)” value in experiment [1] turned out to be 10 µM.
As a reminder, the EC50 is the concentration giving half of the maximal effect. Consider `Cc1ccc(NC(=O)c2ccc3snnc3c2)cc1`, for which the half-maximal effective concentration (EC50) in experiment [2] was 2.76 µM (active); in experiment [3], 1.88 µM (active); in experiment [4], > 120 µM (not active); in [5] it was 6.57 µM (active); in experiment [6], 0.885 µM (active); in experiment [7], 0.185 µM (active).
As for `O=S(=O)(NCc1ccccc1)c1ccc(S(=O)(=O)N(Cc2ccccn2)C2CCCC2)cc1`, the results for the EC50 in [8] and in experiment [9] were 2.35 µM (active) and 3.02 µM (active), respectively.
What is called IC50 is the point on the concentration scale where inhibition reaches its midpoint. For `CC(C)NC(=O)c1c(O)c2ccccc2[nH]c1=O`, the IC50 in experiment [10] is 13.1 µM (active).
One may read the AC50 as the concentration giving half of the maximal activity seen. Consider `O=C(Nc1cccc(NC(=O)N2CCN(c3ccccc3)CC2)c1)N1CCN(c2ccccc2)CC1`, for which the AC50 in experiment [11] was 15.8 µM (inconclusive); in [15], 48.9 µM (active). Moreover, the IC50 in experiment [12] is 10.4 µM (inactive); in [13], 25.1 µM (inactive); in experiment [14], 11 µM (inactive); in [16], > 66.2 µM (inactive).
Consider `CC(C)c1ccc(-n2ncc(Cl)c(Oc3ccc(Cl)cc3)c2=O)cc1`, for which the IC50 is 5.7 µM (active) in [17] and 1.4 µM (active) in [18].

(Values after ChEMBL document CHEMBL1201862, “PubChem BioAssay data set” (2004).)
